The text below walks through data of patent US7091351B2, “Vanadium compounds for treating cancer” (Parker Hughes Institute, priority 1998, dated 2006).

Common to all, as to assay type: cell-based, human
One data set has as its system U373 glioblastoma cells. Kind of data set: MTT cytotoxicity assay of vanadocenes, U373 cells. As to conditions: 24 h. Put shortly: (§1)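 IC50 values come from MTT colorimetry (540 nm) after 24 h drug treatment at 1.9–250 μM in two-fold steps, started 24 h post-seeding. Formazan formed over 4 h at 37 °C and was solubilized overnight in 10% SDS/0.1% HCl; triplicate wells, 0.25% DMSO solvent control.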
On the technique in general: Tetrazolium dyes change colour on reduction, which living cells bring about.

Data set [1] concerns Tera-2 testicular cancer cells. Kind of data set: MTT cytotoxicity assay of vanadocenes, TERA-2 cells. The note with it: 24 h, 1.9-250 μM. Put shortly: as §1
The test system of data set [2] is NTD1 testicular cancer cells. Kind of data set: Cytotoxic activity of oxovanadium(IV) compounds, NTD1. As to conditions: read-out: Cytotoxic Activity NTD1. Put shortly:
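Tumour cells in log growth are seeded, then incubated 48 hours with compound spanning 0.1 to 250 μM. Viable cells reduce MTT (0.5 mg/ml final, 4 hours) to formazan, which is measured at 540 nm and translated to cell number via standard curves for each line.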

The subject of a further data set is HS-SULTAN cells. Kind of data set: In situ detection of apoptosis, confocal microscopy, HS-SULTAN. As to conditions: 48 hours after treatment. The procedure: Exponentially growing cells were seeded in 6-well tissue culture plates and incubated with fresh medium containing compounds. […] The cells were fixed in 2% paraformaldehyde, washed with PBS and pelleted by centrifuging the tubes at 1000 rpm for 5 min. Cells pellets were resuspended in 50 μl of PBS, transferred to superforst plus slides and allowed to attach for 15 min. The cells were permeabilized with 0.1% triton X-100 in 0.1% citrate buffer and incubated for 1 hr at 37° C. with the reaction mixture containing terminal deoxynucleotidyl transferase (TdT) and fluorescein isothiocyanate (FITC)-conjugated dUTP. Cells were washed with PBS to remove unbound reagents and the coverslips were mounted onto slides with Vectashield containing propidium iodide (Vector Labs, Burlingame, Calif.) and slides were viewed with a confocal laser scanning microscope. […] In control reactions, the TdT enzyme was omitted from the reaction mixture.

Several values for one entry are separate records, joined by “and”; a condition that tells them apart may be missing. Identical values can stand only once.

`[Cl-].[Cl-].[V+4].c1cc[cH-]c1.c1cc[cH-]c1` [VDC, VCp2Cl2]: the IC50 was 42 µM in the data set with U373 glioblastoma cells; 80.6 µM and 81 µM in data set [1].

With “bis(4,7-dimethyl-1,10-phenanthroline)sulfatooxovanadium(IV) [Compound 29]”, the IC50 in data set [2] amounted to 10.8 µM. The “apoptotic nuclei (FITC-dUTP / propidium iodide), HS-SULTAN” value with HS-SULTAN cells was “many apoptotic yellow nuclei”.
